Assay results published in PubChem BioAssay AID192 (DTP/NCI, 2004).
“And” between values parts separate entries of the source, which are not always exact repeats. Equal entries are not always repeated. Inconclusive results and toxic doses are left out.

Test system: BDF1 mice, B16 melanoma ip, median survival T/C
Test: NCI In Vivo Anticancer Drug Screen. Data for tumor model B16 Melanoma (intraperitoneal) in B6D2F1 (BDF1) mice
Conditions: endpoint: median survival time, higher = longer survival
Method: The antitumor activity of compounds was measured in mice bearing transplantable tumors. Survival or tumor size were measured and the results are expressed as the measurement made in the treated group (T) divided by the measurement made in the vehicle treated control group (C). The tumor model used in this assay is B16 Melanoma (intraperitoneal) in B6D2F1 (BDF1) mice

[1] = dose: 100.0 mg/kg/injection, schedule: Q04DX003 (ip), vehicle: Klucel (hydroxypropylcellulose) (HPC)
[2] = dose: 50.0 mg/kg/injection, schedule: Q01DX009 (ip), vehicle: Klucel (hydroxypropylcellulose) (HPC)
[3] = dose: 100.0 mg/kg/injection, schedule: Q01DX009 (ip), vehicle: Klucel (hydroxypropylcellulose) (HPC)
[4] = dose: 200.0 mg/kg/injection, schedule: Q01DX009 (ip), vehicle: Klucel (hydroxypropylcellulose) (HPC)
[5] = dose: 100.0 mg/kg/injection, schedule: Q01DX009 (ip), vehicle: saline
[6] = dose: 200.0 mg/kg/injection, schedule: Q01DX009 (ip), vehicle: saline
[7] = dose: 400.0 mg/kg/injection, schedule: Q01DX009 (ip), vehicle: Klucel (hydroxypropylcellulose) (HPC)
[8] = dose: 400.0 mg/kg/injection, schedule: Q01DX009 (ip), vehicle: saline
[9] = dose: 10.0 mg/kg/injection, schedule: Q01DX009 (ip), vehicle: saline with Tween-80

## O=C(/C=C/c1ccncc1)c1ccccc1
dose: 12.5 mg/kg/injection, schedule: Q04DX003 (ip), vehicle: Klucel (hydroxypropylcellulose) (HPC)
  T/C: 93 % of control
dose: 25.0 mg/kg/injection, schedule: Q04DX003 (ip), vehicle: Klucel (hydroxypropylcellulose) (HPC)
  T/C: 110 % of control
dose: 50.0 mg/kg/injection, schedule: Q04DX003 (ip), vehicle: Klucel (hydroxypropylcellulose) (HPC)
  T/C: 103 % of control
[1]
  T/C: 99 % of control

## ClC1(Cl)C2C=CC=CCC21 (centres undefined)
dose: 50.0 mg/kg/injection, schedule: Q04DX003 (ip), vehicle: other
  T/C: 107 % of control
dose: 100.0 mg/kg/injection, schedule: Q04DX003 (ip), vehicle: other
  T/C: 102 % of control
dose: 200.0 mg/kg/injection, schedule: Q04DX003 (ip), vehicle: other
  T/C: 86 % of control

## CC1(C)OCC(C2CCC3(C)C4=CCC5C(C)(C)C(O)CCC5(C)C4CCC23C)CC(O)C1O (centres undefined)
dose: 5.0 mg/kg/injection, schedule: Q01DX009 (ip), vehicle: Klucel (hydroxypropylcellulose) (HPC)
  T/C: 118 % of control
dose: 10.0 mg/kg/injection, schedule: Q01DX009 (ip), vehicle: Klucel (hydroxypropylcellulose) (HPC)
  T/C: 102 % of control

## Cn1cnc([N+](=O)[O-])c1[Se]c1nc(N)nc2nc[nH]c12
dose: 3.12 mg/kg/injection, schedule: Q01DX009 (ip), vehicle: water
  T/C: 109 % of control
dose: 6.25 mg/kg/injection, schedule: Q01DX009 (ip), vehicle: water
  T/C: 117 % of control
dose: 11.0 mg/kg/injection, schedule: Q01DX009 (ip), vehicle: other
  T/C: 116 % of control
dose: 12.5 mg/kg/injection, schedule: Q01DX009 (ip), vehicle: water
  T/C: 150 % of control
dose: 16.5 mg/kg/injection, schedule: Q01DX009 (ip), vehicle: other
  T/C: 117 % of control
dose: 25.0 mg/kg/injection, schedule: Q01DX009 (ip), vehicle: water
  T/C: 153 % of control and 158 % of control

## Cc1cccc2nc(-c3ccccc3)ccc12
dose: 12.5 mg/kg/injection, schedule: Q04DX003 (ip), vehicle: saline
  T/C: 107 % of control
dose: 25.0 mg/kg/injection, schedule: Q04DX003 (ip), vehicle: saline
  T/C: 105 % of control

## c1ccc(-c2cnoc2-c2ccccc2)cc1
[2]
  T/C: 100 % of control
[3]
  T/C: 107 % of control
[4]
  T/C: 100 % of control

## CC[As](=O)(O)CC
dose: 50.0 mg/kg/injection, schedule: Q01DX009 (ip), vehicle: saline
  T/C: 97 % of control
[5]
  T/C: 103 % of control
[6]
  T/C: 105 % of control

## CCN(CC)c1ccc(C=Nc2cccc(C(F)(F)F)c2)cc1
[2]
  T/C: 103 % of control
[3]
  T/C: 96 % of control
[4]
  T/C: 96 % of control

## CCc1ccc2c(c1)N(CC(C)CN(C)C)c1ccccc1S2 (centres undefined)
dose: 0.78 mg/kg/injection, schedule: Q01DX009 (ip), vehicle: saline
  T/C: 105 % of control
dose: 1.56 mg/kg/injection, schedule: Q01DX009 (ip), vehicle: saline
  T/C: 87 % of control and 111 % of control
dose: 3.12 mg/kg/injection, schedule: Q01DX009 (ip), vehicle: saline
  T/C: 98 % of control and 108 % of control

## O=C(/C=C/C(=O)Oc1c(Cl)c(Cl)c(Cl)c(Cl)c1Cl)Oc1c(Cl)c(Cl)c(Cl)c(Cl)c1Cl
[3]
  T/C: 86 % of control

## COc1cc2c(cc1OC)C(CCc1ccc(Cl)cc1)N(C)CC2 (centres undefined)
dose: 25.0 mg/kg/injection, schedule: Q01DX009 (ip), vehicle: Klucel (hydroxypropylcellulose) (HPC)
  T/C: 88 % of control
[2]
  T/C: 93 % of control
[3]
  T/C: 98 % of control
[4]
  T/C: 93 % of control

## NC(=O)Oc1ccccc1
[3]
  T/C: 100 % of control
dose: 100.0 mg/kg/injection, schedule: Q04DX003 (ip), vehicle: saline with Tween-80
  T/C: 106 % of control
[4]
  T/C: 100 % of control
dose: 200.0 mg/kg/injection, schedule: Q04DX003 (ip), vehicle: saline with Tween-80
  T/C: 113 % of control
dose: 400.0 mg/kg/injection, schedule: Q04DX003 (ip), vehicle: saline with Tween-80
  T/C: 110 % of control

## Cc1cnnc2ccccc12
dose: 12.5 mg/kg/injection, schedule: Q01DX009 (ip), vehicle: saline with Tween-80
  T/C: 91 % of control
dose: 25.0 mg/kg/injection, schedule: Q01DX009 (ip), vehicle: saline with Tween-80
  T/C: 98 % of control
dose: 50.0 mg/kg/injection, schedule: Q01DX009 (ip), vehicle: saline with Tween-80
  T/C: 95 % of control

## COc1ccc(NCc2ccc(C)cc2)cc1
[3]
  T/C: 91 % of control
[4]
  T/C: 94 % of control
[7]
  T/C: 91 % of control

## Cc1ccc(NS(=O)(=O)c2ccc(F)cc2)cc1C
[3]
  T/C: 96 % of control
[4]
  T/C: 100 % of control
[7]
  T/C: 93 % of control

## CC(C)(C#N)N1CCCCC1
dose: 0.03 mg/kg/injection, schedule: Q01DX009 (ip), vehicle: saline
  T/C: 97 % of control
dose: 0.07 mg/kg/injection, schedule: Q01DX009 (ip), vehicle: saline
  T/C: 104 % of control
dose: 0.15 mg/kg/injection, schedule: Q01DX009 (ip), vehicle: saline
  T/C: 98 % of control
dose: 2.5 mg/kg/injection, schedule: Q01DX009 (ip), vehicle: saline
  T/C: 102 % of control

## CC(C)C1NC(=O)NC1=O (centres undefined)
[5]
  T/C: 100 % of control
dose: 100.0 mg/kg/injection, schedule: Q04DX003 (ip), vehicle: saline
  T/C: 100 % of control
[6]
  T/C: 95 % of control
dose: 200.0 mg/kg/injection, schedule: Q04DX003 (ip), vehicle: saline
  T/C: 106 % of control
[8]
  T/C: 100 % of control
dose: 400.0 mg/kg/injection, schedule: Q04DX003 (ip), vehicle: saline
  T/C: 97 % of control

## CC12CCC(O)CC1CCC1C2CCC2(C)C(c3ccc(=O)oc3)CC3OC312 (centres undefined)
dose: 0.31 mg/kg/injection, schedule: Q01DX009 (ip), vehicle: saline with Tween-80
  T/C: 102 % of control
dose: 0.62 mg/kg/injection, schedule: Q01DX009 (ip), vehicle: saline with Tween-80
  T/C: 94 % of control
dose: 1.25 mg/kg/injection, schedule: Q01DX009 (ip), vehicle: saline with Tween-80
  T/C: 95 % of control
dose: 2.5 mg/kg/injection, schedule: Q01DX009 (ip), vehicle: saline with Tween-80
  T/C: 98 % of control
dose: 5.0 mg/kg/injection, schedule: Q01DX009 (ip), vehicle: saline with Tween-80
  T/C: 100 % of control
[9]
  T/C: 95 % of control

## CCC(C)C(N)C(=O)NC(CC(N)=O)C(=O)NC(CC(C)C)C(=O)NC(CCCCN)C(=O)NC(C)C(=O)NC(CC(C)C)C(=O)NC(C)C(=O)NC(C)C(=O)NC(CC(C)C)C(=O)NC(C)C(=O)NC(CCCCN)C(=O)NC(CCCCN)C(=O)NC(C(=O)NC(CC(C)C)C(N)=O)C(C)CC (centres undefined)
dose: 1.0 mg/kg/injection, schedule: Q01DX009 (ip), vehicle: Klucel (hydroxypropylcellulose) (HPC)
  T/C: 97 % of control
dose: 2.0 mg/kg/injection, schedule: Q01DX009 (ip), vehicle: Klucel (hydroxypropylcellulose) (HPC)
  T/C: 97 % of control
dose: 4.0 mg/kg/injection, schedule: Q01DX009 (ip), vehicle: Klucel (hydroxypropylcellulose) (HPC)
  T/C: 91 % of control

## Cc1ccc2c(C)c3ccc4ccccc4c3c[n+]2c1
[9]
  T/C: 104 % of control
dose: 20.0 mg/kg/injection, schedule: Q01DX009 (ip), vehicle: saline with Tween-80
  T/C: 106 % of control
dose: 40.0 mg/kg/injection, schedule: Q01DX009 (ip), vehicle: saline with Tween-80
  T/C: 100 % of control

## CC(=O)OC1CCC2(C)C(CC(=O)C(C)C23CCC2(C=COC2)O3)C1(C)C (centres undefined)
dose: 6.0 mg/kg/injection, schedule: Q01DX009 (ip), vehicle: Klucel (hydroxypropylcellulose) (HPC)
  T/C: 101 % of control
dose: 12.0 mg/kg/injection, schedule: Q01DX009 (ip), vehicle: Klucel (hydroxypropylcellulose) (HPC)
  T/C: 99 % of control
dose: 24.0 mg/kg/injection, schedule: Q01DX009 (ip), vehicle: Klucel (hydroxypropylcellulose) (HPC)
  T/C: 95 % of control
dose: 48.0 mg/kg/injection, schedule: Q01DX009 (ip), vehicle: Klucel (hydroxypropylcellulose) (HPC)
  T/C: 99 % of control

## CCCCCCCCN(C)/N=N/c1nc[nH]c1C(N)=O
dose: 37.5 mg/kg/injection, schedule: Q01DX009 (ip), vehicle: saline with Tween-80
  T/C: 121 % of control
dose: 75.0 mg/kg/injection, schedule: Q01DX009 (ip), vehicle: saline with Tween-80
  T/C: 123 % of control

## c1ccc(COB(OCc2ccccc2)OCc2ccccc2)cc1
[5]
  T/C: 108 % of control
[6]
  T/C: 97 % of control
[8]
  T/C: 87 % of control

## Cc1ccc(S(=O)(=O)N2CCC(O)(c3ccccc3)CC2)cc1
dose: 20.0 mg/kg/injection, schedule: Q01DX009 (ip), vehicle: Klucel (hydroxypropylcellulose) (HPC)
  T/C: 87 % of control
[1]
  T/C: 95 % of control
dose: 200.0 mg/kg/injection, schedule: Q04DX003 (ip), vehicle: Klucel (hydroxypropylcellulose) (HPC)
  T/C: 91 % of control
[7]
  T/C: 119 % of control
dose: 400.0 mg/kg/injection, schedule: Q04DX003 (ip), vehicle: Klucel (hydroxypropylcellulose) (HPC)
  T/C: 97 % of control
